Test results: patent publication US20090269795A1, “Mutant alpha4betadelta GABAA receptor and methods of treating anxiety or irritability” (priority 2007, published 2009)
Where a name gives a salt, the structure may show the parent alone.

Key:
α4β2δ GABAA receptors = assay: Whole cell patch clamp of GABA-gated current, recombinant receptors in HEK-293 cells; type: cell-based, human or mouse α4, rat β2, human δ
Source text: (§1) Recombinant receptors: Transfection—Plasmids obtained from S. Vicini (rat α1, α5, β2, β3 and γ2), P. Whiting (human α4 and δ) and N. L. Harrison (mouse α4) were propagated in E coli DH5α and prepared using Qiagen Maxi- or Midi-prep kits. (Rat, mouse and human α1, β2, β3 and γ2 subunits are identical or nearly identical.) All receptors were transfected at a 1:1:1 ratio, except α1β2γ2 (1:1:5)^12, α4βδ (5:1:5)^13 and α4β2γ2 (5:1:1). HEK-293 cells were maintained in medium (DMEM:Ham's F-12 1:1) supplemented with 10% fetal calf serum at 37° C. in a humid 5% CO2 atmosphere. Cells were transfected using calcium phosphate or Polyfect (Qiagen) and co-transfected with enhanced green fluorescent protein (ratio of DNA to eGFP was 6:1 or 10:1 depending on the DNA concentration) for visualization. α4-containing GABAA receptors required 2-3 d for maximal levels of expression; all other receptors were recorded 1-2 d after transfection. Because mouse α4 and human α4-containing receptors yielded the same results, the currents were averaged together.
Whole cell patch clamp recording—GABA-gated currents were recorded at room temperature (20-22° C.) at a holding potential of −50 mV^14. The pipet solution contained (in mM): N-methyl-D-glucamine chloride 120, Cs4BAPTA 5 (Calbiochem), Mg-ATP 5, and an ATP regeneration system (20 mM Tris phosphocreatine and creatine kinase). Internal [Cl^−] or the holding potential were varied, using gluconate as the anion, to alter the direction of Cl^− flow, corrected for the junction potential. In some cases, current-voltage curves were constructed using the peak current response to agonist or agonist+THP across a range of holding potentials (−60 to +60) applied as 10 mV steps, or as a voltage ramp. […] Traces are presented as the average of 3 traces after subtraction of the leak current. […] This rapid application technique yields currents with a rapid rise phase. THP was also bath applied 30 s prior to tests of steroid effects. Currents were recorded using an Axopatch 1D amplifier (Axon Instruments) filtered at 2 kHz (four-pole Bessel filter) and detected at 10 kHz (pClamp 5.1). Analysis of peak current was accomplished with pClamp 9.2 and Origin software (Microcal).
Following the recording, the patch was blown out, and the open tip potential recorded using solutions with a 5% difference in NaCl osmolarity to verify the approximate solution exchange time. The time constant (τ) for desensitization was approximated using non-linear curve fitting routines with Levenburg-Marquardt algorithms (Origin software, Microcal). Goodness of fit was determined by minimizing the sum of the squares of deviations of the theoretical curve from the experimental points.
Recombinant receptors: Human embryonic kidney (HEK)-293 cells were transfected with α4 β2δ or other indicated subunit combinations (see Supplementary Methods) and co-transfected with enhanced green fluorescent protein for visualization. GABA-gated currents were recorded at room temperature (20-22° C.) at a holding potential of −50 mV^17 using a pipet solution containing 120 mM: N-methyl-D-glucamine chloride. Internal [Cl^−] or the holding potential were varied to alter the direction of Cl^− flow. […] Currents were recorded using an Axopatch 1D amplifier (Axon Instruments) filtered at 2 kHz (four-pole Bessel filter), detected at 10 kHz and analyzed with pClamp 9.2. Desensitization rate was determined using non-linear curve-fitting routines (Origin, Microcal; see next section).
Further Studies with Recombinant receptors: Transfection—Plasmids obtained from S. Vicini (rat α1, α5, β2, β3 and y2), P. Whiting (human α4 and 6) and N. L. Harrison (mouse α4) were propagated in E coli DH5α and prepared using Qiagen Maxi- or Midi-prep kits. (Rat, mouse and human α1, β2, β3 and γ2 subunits are identical or nearly identical.) All receptors were transfected at a 1:1:1 ratio, except a132γ2 (1:1:5)^12, α4β28 (5:1:5)^13 and α4β2γ2 (5:1:1). […]

female C57BL6 mice = assay: Elevated plus maze (with or without restraint stress); type: in vivo, mouse; conditions: pre-administration before restraint stress; pubertal
Source text: Animal subjects. Prepubertal and pubertal female C57BL6 mice (3½-6 weeks old, +/+ and δ^−/−1) were housed in a reverse light:dark cycle (12:12). Both sets of mice were originally supplied by G. Homanics (Univ. of Pittsburgh), and were bred on site, with +/+ mice supplemented from Jackson Laboratories (Bar Harbor, Me.). Initially, age-matched+/+littermates of the δ^−/−were used as controls, but because they were indistinguishable from C57BL6, data from both groups were pooled. Genotyping of the tails verified that mice were homozygous δ^−/−. Some animals (+/+ or δ^−/−) were injected with finasteride (1,(5α)-androstene-4-aza-3-one-N-tert-butyl-17β-carboxaminde, Steraloids, 50 mg kg^, −1 intraperitoneally, 3 days) to block THP synthesis^2 or oil vehicle on a daily basis 1-1.5 h before dark onset, when THP levels increase, and tested 30 min. later. The onset of puberty was determined by vaginal opening, and pubertal mice tested on the day of first metestrus, identified by vaginal morphology and verification of first estrus the previous day. Mice with vaginal smears representative of diestrus were excluded from the study. Individual stages of puberty were not distinguished, and pre-pubertal mice were used before any visible signs of pubertal development, assessed by development of the peri-vaginal area. In some cases, pubertal mice were injected with replacement THP (3α-OH-5β-pregnan-20-one, 10 mg kg^−1, intraperitoneally in oil) for three days before testing. Procedures were in accordance with the SUNY Downstate Institutional Animal Care and Use Committee.
Restraint stress. In order to test the effect stress-induced release of THP^6,46,47 on anxiety, mice were restrained in a clear Plexiglas tube-type holder (Harvard Apparatus) for 45 min. and tested 20 min. later on the elevated plus maze (see Supplementary Methods). Open arm time was evaluated for 5 min. on the elevated plus maze. A decrease in open arm time reflects an increase in anxiety^18. In all cases, the results from each mouse tested after restraint was expressed relative to the averaged results from the sham controls, which were identical to the stressed animals (age, genotype, sex, drug-injected), except that they were not subjected to restraint stress.
Elevated plus maze. Testing rodent behavior on the elevated plus maze is an established animal model of anxiety^31. The plus maze consists of four 8×35 cm arms at 90° angles, elevated 57 cm above the floor. Two arms are enclosed by 33 cm walls, and two arms have no walls (“open arms”). […] Each animal was initially acclimated to the room for 30 min-1 h before being placed in the center of the maze, and exploratory activity recorded for 5 min. […]

hippocampal THP levels = assay: Radioimmunoassay of hippocampal 3α,5α-THP levels; type: in vivo, mouse; conditions: administration of 5α-reductase blocker
Source text: Animal subjects. Prepubertal and pubertal female C57BL6 mice (3½-6 weeks old, +/+ and δ^−/−1) were housed in a reverse light:dark cycle (12:12). Both sets of mice were originally supplied by G. Homanics (Univ. of Pittsburgh), and were bred on site, with +/+ mice supplemented from Jackson Laboratories (Bar Harbor, Me.). Initially, age-matched+/+littermates of the δ^−/−were used as controls, but because they were indistinguishable from C57BL6, data from both groups were pooled. Genotyping of the tails verified that mice were homozygous δ^−/−. […] The onset of puberty was determined by vaginal opening, and pubertal mice tested on the day of first metestrus, identified by vaginal morphology and verification of first estrus the previous day. […] Individual stages of puberty were not distinguished, and pre-pubertal mice were used before any visible signs of pubertal development, assessed by development of the peri-vaginal area. […]
Radioimmunoassay for 3α,5α-THP. Hippocampal levels of 3α,5α-THP were assessed by radioimmunoassay (RIA) by C. […] Sample tube concentrations were calculated using the logit-log method^6, interpolation of the standards, and correction for recovery. […]

α4β2γ2 receptors = assay: Whole cell patch clamp of GABA-gated current, recombinant receptors in HEK-293 cells; type: cell-based, human or mouse α4, rat β2, rat γ2
Source text: as §1
Whole cell patch clamp recording—GABA-gated currents were recorded at room temperature (20-22° C.) at a holding potential of −50 mV^14. […] Currents were recorded using an Axopatch 1D amplifier (Axon Instruments) filtered at 2 kHz (four-pole Bessel filter) and detected at 10 kHz (pClamp 5.1). […]

[1] = test system: CA1 hippocampal pyramidal cells (α4βδ receptors); assay: La3+-sensitive gaboxadol-induced current, whole cell patch clamp, hippocampal slice; type: cell-based, mouse; conditions: 30 μM GBX, after puberty or THP Wd
[2] = test system: CA1 hippocampal pyramidal cells; assay: Input resistance and neuronal excitability (spiking), hippocampal slice; type: cell-based, mouse; conditions: puberty
Procedure: Tonic current was recorded as the difference current produced by 120 μM gabazine, which blocks all GABAA receptor, before and after 30 nM THP^24. Current was also recorded in response to 2 s 10 mV steps in the holding potential, and current-voltage curves generated to the steady-state current. Because fast-inactivating conductances would not be excluded in a voltage ramp, stable steady-state current responses were used instead to construct the current-voltage (IV) curves. Input resistance (Rm) was calculated from the current response to voltage steps from −60 to −40 mV using Ohm's Law. The reversal potential was determined by the […] of the IV curve (−90 to −10 mV). The gabazine-sensitive slope conductance was assessed as the slope of the linear portion of outward current plot recorded before and after THP after subtraction of the gabazine-generated current (in the presence of L-655,708 to block α5-GABAA receptors). Only data with a stable baseline and pipet access resistance <10 MΩ were included in the analysis.
Effects of THP on cell excitability were tested by monitoring spiking using cell attached patch recordings^31 in voltage clamp mode (−40 mV holding potential, 150 mM NaCl intrapipet solution) or assessing the current threshold to spiking and spike frequency in current clamp mode (0.01-0.3 nA steps, starting from −1 nA, 1 s duration). (More complete details are supplied in the Supplementary Methods.)

[3] = test system: CA1 hippocampal pyramidal cell dendrites; assay: Tight-seal cell-attached current-clamp recording during dendritic agonist application; type: cell-based, mouse; conditions: 5 μM; stratum radiatum; pubertal
Procedure: Tonic current was recorded as the difference current produced by the selective GABAA receptor antagonist gabazine (120 μM) before and after 30 nM THP^4,29, while gramicidin perforated-patch recordings^33 were accomplished using 140 mM KCl plus 25 μg ml^−1 gramicidin in the pipet solution, recorded when the access resistance dropped to <60 MΩ after tight seal formation. Estimates of the direction of Cl^− current were obtained by recording using tight-seal cell-attached techniques^31 (>1 GΩ seal) in current clamp mode. A downward deflection signified outward (i.e., hyperpolarizing) Cl^− current.
To determine whether THP inhibition of GABAergic currents at puberty was a physiological phenomenon, we initially verified that GABA-gated currents were outward in CA1 hippocampal pyramidal cell dendrites at the onset of puberty. […] The voltage change was recorded in current clamp mode from the soma using tight-seal cell attached techniques at a holding current of 0 pA^31.

**Q.** How did the “inhibitory effect on outward GABA-gated current” value (α4β2δ GABAA receptors; isomer selectivity, FIG. 1e) turn out when `CC(=O)[C@H]1CC[C@H]2[C@@H]3CC[C@H]4C[C@@H](O)CC[C@]4(C)[C@H]3CC[C@]12C` (single isomer, unassigned; isomer 3) [3β-OH isomer, 3βOH-5α[β]-pregnan-20-one] was run?
**A.** selective for the active 3α-OH isomer, but not the inactive 3,3-OH isomer

**Q.** What about the “effect on stress-induced increase in anxiety” value (female C57BL6 mice) of the same compound?
**A.** prevented the stress-induced increase in anxiety

**Q.** Which “decline in hippocampal THP levels” value (hippocampal THP levels) does the source give for `CC(C)(C)NC(=O)[C@H]1CC[C@H]2[C@@H]3CC[C@H]4NC(=O)C=C[C@]4(C)[C@H]3CC[C@]12C` [5α-reductase blocker, 1,(5α)-androstene-4-aza-3-one-N-tert-butyl-17β-carboxaminde] here?
**A.** 58±10%

**Q.** `NCCCC(=O)O` [GABA] was tested. Which “GABA EC20” value (α4β2δ GABAA receptors) did it give?
**A.** […]

**Q.** And the “GABA EC20” value (α4β2γ2 receptors)?
**A.** 5000 nM

**Q.** `[La+3]` [La^3+] was tested. Which “reduction of GBX-generated current” value ([1]; 300 μM La3+) did it give?
**A.** 50-70%

**Q.** `CCN(c1ccccc1)c1cc(=NC)n(C)c(C)n1.Cl` [ZD 7288] was tested. Which “effect of Ih blockade on excitatory effect of THP” value ([2]; 20 μM ZD 7288) did it give?
**A.** did not prevent the excitatory effect of THP

**Q.** `COc1ccc(-c2ccc(=N)n(CCCC(=O)O)n2)cc1` [gabazine, 6-imino-3-(4-methyoxyphenyl)-1 (6H)-pyridazinebutanoic acid hydrobromide] was tested. Which “effect on THP-induced increase of input resistance” value ([2]; 120 μM gabazine pre-applied) did it give?
**A.** prevented

**Q.** Which “GBX-generated current vs pre-pubertal slices” value [1] does the source give for `Oc1noc2c1CCNC2` [gaboxadol, 4,5,6,7-Tetrahydroisoxazolo[5,4-c]pyridin-3-ol] here?
**A.** significantly larger current

**Q.** And the “change in membrane potential on dendritic application” value [3]?
**A.** downward shift of the membrane potential
